Where a name gives a salt, the structure may show the parent alone.
Experiments:
μ-receptor = μ-receptor (Homo sapiens (Human), UniProt P35372); experiment: Receptor binding, competitive displacement of [3H]DAMGO; details: 0.25 nM [3H]DAMGO, CHO cell membrane protein, 60 min at 25° C.
Protocol: The Ki (binding affinity) for μ-receptor was determined with a previously described method using a competitive displacement assay (Neumeyer et al., J. Med. Chem., v. 46, p. 5162-5170, 2003). Membrane protein from CHO (Chinese Hamster Ovarian) cells that stably expressed one type of the cloned human opioid receptor were incubated with 12 different concentrations of the compound in the presence of 0.25 nM [3H]DAMGO, 0.2 nM [3H]naltrindole or 1 nM [3H]U69,593 in a final volume of 1 mL of 50 mM Tris-HCl, pH 7.5 at 25° C. Incubation times of 60 min were used for [3H]DAMGO and [3H]U69,593. Because of a slower association of [3H]naltrindole with the receptor, a 3 h incubation was used with this radioligand. Samples incubated with [3H]naltrindole also contained 10 mM MgCl2 and 0.5 mM phenylmethylsulfonyl fluoride. Nonspecific binding was measured by inclusion of 10 μM naloxone. The binding was terminated by filtering the samples through Schleicher & Schuell No. 32 glass fiber filters using a Brandel 48-well cell harvester. The filters were subsequently washed three times with 3 mL of cold 50 mM Tris-HCl, pH 7.5, and were counted in 2 mL Ecoscint A scintillation fluid. For [3H]naltrindole and [3H]U69,593 binding, the filters were soaked in 0.1% polyethylenimine for at least 60 min before use. IC50 values will be calculated by least squares fit to a logarithm-probit analysis. Ki values of unlabelled compounds were calculated from the equation Ki=(IC50)/1+S where S=(concentration of radioligand)/(Kd of radioligand) (Cheng and Prusoff, Biochemical Pharmacology, v. 22, p. 3099-3108, 1973).

human μ opioid receptor = human μ opioid receptor (Homo sapiens (Human), UniProt P35372); experiment: Functional activity ([35S]GTPγS binding); type: biochemical; details: [35S]GTPγS 0.080 nM, CHO cell membranes, 60 min at 30° C., filtration
Protocol: The [^35S]GTPγS assay measures the functional properties of a compound by quantifying the level of G-protein activation following agonist binding in studies using stably transfected cells, and is considered to be a measure of the efficacy of a compound. Membranes from CHO (Chinese Hamster Ovary) cells that stably expressed one type of the cloned human opioid receptor human were used in the experiments. In a final volume of 0.5 mL, 12 different concentrations of each test compound were incubated with 7.5 μg of CHO cell membranes that stably expressed the human p opioid receptor. The assay buffer consisted of 50 mM Tris-HCl, pH 7.4, 3 mM MgCl2, 0.2 mM EGTA, 3 μM GDP, and 100 mM NaCl. The final concentration of [35S]GTPγS was 0.080 nM. Nonspecific binding was measured by inclusion of 10 μM GTPγS. Binding was initiated by the addition of the membranes. After an incubation of 60 min at 30° C., the samples were filtered through Schleicher & Schuell No. 32 glass fiber filters. The filters were washed three times with cold 50 mM Tris-HCl, pH 7.5, and were counted in 2 mL of Ecoscint scintillation fluid.

SMILES	Ki (μ-receptor) [nM]	EC50 (human μ opioid receptor) [nM]
COC1(c2cccc(C(N)=O)c2)C2CCCC1CN(C1CC1)C2 [Compound 38, 3-((1R,5S,9r)-3-cyclopropyl-9-methoxy-3-azabicyclo[3.3.1]nonan-9-yl)benzamide hydrochloride]	< 1	10 to 75
COC1(c2ccnc(C(N)=O)c2)C2CCCC1CN(CCN1CCNC1=O)C2 [Compound 85, 4-((1R,5S,9r)-9-methoxy-3-(2-(2-oxoimidazolidin-1-yl)ethyl)-3-azabicyclo[3.3.1]nonan-9-yl)picolinamide hydrochloride]	1 to 5	10 to 75
CN1CC2CCCC(C1)C2(OCC(F)(F)F)c1cccc(C(N)=O)c1 [Compound 37, 3-((1R,5S,9r)-3-methyl-9-(2,2,2-trifluoroethoxy)-3-azabicyclo[3.3.1]nonan-9-yl)benzamide hydrochloride]	1 to 5	10 to 75
COC1(c2ccnc(C(N)=O)c2)C2CCCC1CN(Cc1ncc[nH]1)C2 [Compound 99, 4-((1R,5S,9r)-3-((1H-imidazol-2-yl)methyl)-9-methoxy-3-azabicyclo[3.3.1]nonan-9-yl)picolinamide hydrochloride]	1 to 5	10 to 75
COC1(c2ccnc(C(N)=O)c2)C2CCCC1CN(CCC1CC1)C2 [Compound 86, 4-((1R,5S,9r)-3-(2-cyclopropylethyl)-9-methoxy-3-azabicyclo[3.3.1]nonan-9-yl)picolinamide hydrochloride]	1 to 5	10 to 75
COC1(c2ccnc(C(N)=O)c2)C2CCCC1CN(Cc1n[nH]c3ccccc13)C2 [Compound 142, 4-((1R,5S,9r)-3-((1H-indazol-3-yl)methyl)-9-methoxy-3-azabicyclo[3.3.1]nonan-9-yl)picolinamide hydrochloride]	< 1	< 10
COC1(c2ccnc(C(N)=O)c2)C2CCCC1CN(CCN1CCCS1(=O)=O)C2 [Compound 88, 4-((1R,5S,9r)-3-(2-(1,1-dioxidoisothiazolidin-2-yl)ethyl)-9-methoxy-3-azabicyclo[3.3.1]nonan-9-yl)picolinamide hydrochloride]	1 to 5	> 75
COC1(c2cccc(C(N)=O)c2)C2CCCC1CNC2 [Compound 35, 3-((1R,5S,9r)-9-methoxy-3-azabicyclo[3.3.1]nonan-9-yl)benzamide hydrochloride]	< 1	10 to 75
COC1(c2ccnc(C(N)=O)c2)C2CCCC1CN(C[C@H]1CCCO1)C2.Cl (single isomer, unassigned) [Compound 136, hydrochloride]	> 5	10 to 75
COC1(c2ccnc(C(N)=O)c2)C2CCCC1CN(Cc1cnco1)C2 (stereo not drawn) [Compound 115, hydrochloride]	1 to 5	10 to 75
COC1(c2cccc(C(N)=O)c2)C2CCCC1CN(C(C)C)C2 [Compound 25, 3-((1R,5S,9r)-3-isopropyl-9-methoxy-3-azabicyclo[3.3.1]nonan-9-yl)benzamide hydrochloride]	< 1	–
COC1(c2cc(C(N)=O)ccn2)C2CCCC1CN(C)C2 [Compound 44, 2-((1R,5S,9r)-9-methoxy-3-methyl-3-azabicyclo[3.3.1]nonan-9-yl)isonicotinamide hydrochloride]	1 to 5	–
COC1(c2ccnc(C(N)=O)c2)C2CCCC1CN(Cc1cnnn1C)C2 [Compound 125, 4-((1R,5S,9r)-9-methoxy-3-((1-methyl-1H-1,2,3-triazol-5-yl)methyl)-3-azabicyclo[3.3.1]nonan-9-yl)picolinamide hydrochloride]	> 5	–
COC1(c2ccnc(C(N)=O)c2)C2CCCC1CN(CCN1CCOC1=O)C2 [Compound 80, 4-((1R,5S,9r)-9-methoxy-3-(2-(2-oxooxazolidin-3-yl)ethyl)-3-azabicyclo[3.3.1]nonan-9-yl)picolinamide hydrochloride]	> 5	–
COC1(c2ccnc(C(N)=O)c2)C2CCCC1CN([C@@H]1CC[C@@H]1c1ccccc1)C2 (stereo partly drawn) [Compound 110, 4-((1R,5S,9R)-9-methoxy-3-((1R,2R)-2-phenylcyclobutyl)-3-azabicyclo[3.3.1]nonan-9-yl)picolinamide hydrochloride]	> 5	–
COC1(c2cc(C(N)=O)cs2)C2CCCC1CN(CC1CC1)C2 [Compound 59, 5-((1R,5S,9r)-3-(cyclopropylmethyl)-9-methoxy-3-azabicyclo[3.3.1]nonan-9-yl)thiophene-3-carboxamide hydrochloride]	1 to 5	–
COC1(c2ccnc(C(N)=O)c2)C2CCCC1CN(Cc1cc3ccccc3[nH]1)C2 [Compound 119, 4-((1R,5S,9r)-3-((1H-indol-2-yl)methyl)-9-methoxy-3-azabicyclo[3.3.1]nonan-9-yl)picolinamide (S)-2-hydroxysuccinate]	–	< 10
COC1(c2ccc(F)c(C(N)=O)c2)C2CCCC1CN(C)C2 [Compound 41, 2-fluoro-5-((1R,5S,9r)-9-methoxy-3-methyl-3-azabicyclo[3.3.1]nonan-9-yl)benzamide hydrochloride]	> 5	–
COC1(c2cc(O)cc(C(N)=O)c2)C2CCCC1CN(C)C2 [Compound 52, 3-hydroxy-5-((1R,5S,9r)-9-methoxy-3-methyl-3-azabicyclo[3.3.1]nonan-9-yl)benzamide hydrochloride]	> 5	–
COC1(c2cccc(C(N)=O)n2)C2CCCC1CN(C)C2 [Compound 33, 6-((1R,5S,9r)-9-methoxy-3-methyl-3-azabicyclo[3.3.1]nonan-9-yl)picolinamide hydrochloride]	> 5	–
COC1(c2ccc(C(N)=O)cc2)C2CCCC1CN(CC1CC1)C2 [Compound 31, 4-((1R,5S,9r)-3-(cyclopropylmethyl)-9-methoxy-3-azabicyclo[3.3.1]nonan-9-yl)benzamide hydrochloride]	> 5	–
COC1(c2cncc(C(N)=O)c2)C2CCCC1CN(CC1CC1)C2 [Compound 28, 5-((1R,5S,9r)-3-(cyclopropylmethyl)-9-methoxy-3-azabicyclo[3.3.1]nonan-9-yl)nicotinamide hydrochloride]	> 5	–
COC1(c2ccnc(C(N)=O)c2)C2CCCC1CN([C@H]1CC[C@H]1c1ccccc1)C2 (stereo partly drawn) [Compound 116, 4-((1R,5S,9s)-9-methoxy-3-((1S,2S)-2-phenylcyclobutyl)-3-azabicyclo[3.3.1]nonan-9-yl)picolinamide (S)-2-hydroxysuccinate]	> 5	–
COC1(c2ccnc(C(N)=O)c2)C2CCCC1CN(CC(C)(C)C)C2 [Compound 105, 4-((1R,5S,9r)-9-methoxy-3-neopentyl-3-azabicyclo[3.3.1]nonan-9-yl)picolinamide hydrochloride]	> 5	–
COC1(c2ccnc(C(N)=O)c2)C2CCCC1CN(Cc1cccc(=O)[nH]1)C2 [Compound 120, 4-((1R,5S,9r)-34(6-hydroxypyridin-2-yl)methyl)-9-methoxy-3-azabicyclo[3.3.1]nonan-9-yl)picolinamide hydrochloride]	> 5	–
COC1(c2ccnc(C(N)=O)c2)C2CCCC1CN(C1CN(C(C)=O)C1)C2 [Compound 84, 4-((1R,5S,9r)-3-(1-acetylazetidin-3-yl)-9-methoxy-3-azabicyclo[3.3.1]nonan-9-yl)picolinamide hydrochloride]	> 5	–
COC1(c2ccnc(C(N)=O)c2)C2CCCC1CN(CCS(C)(=O)=O)C2 [Compound 8, 4-((1R,5S,9r)-9-methoxy-3-(2-(methylsufonyl)ethyl)-3-azabicyclo[3.3.1]nonan-9-yl)picolinamide hydrochloride]	> 5	–
COC1(c2ccnc(C(N)=O)c2)C2CCCC1CN(CC1(F)CCOCC1)C2 [Compound 15, 4-((1R,5S,9r)-34(4-fluorotetrahydro-2H-pyran-4-yl)methyl)-9-methoxy-3-azabicyclo[3.3.1]nonan-9-yl)picolinamide hydrochloride]	> 5	–
COC1(c2cccc(C(N)=O)c2)C2CCCC1CN(CC(F)(F)F)C2 [Compound 32, 3-((1R,5S,9r)-9-methoxy-3-(2,2,2-trifluoroethyl)-3-azabicyclo[3.3.1]nonan-9-yl)benzamide hydrochloride]	> 5	–
